Structure (SMILES)	melting point [°C]
COc1cc2ncnc(N3CCN(C(=O)Nc4ccc(I)cc4)CC3)c2cc1OC [Compound 46, 4-(6,7-Dimethoxy-4-quinazolinyl)-N-(4-iodophenyl)-1-piperazinecarboxamide]	238 to 242
COc1cc2ncnc(N3CCN(C(=S)Nc4ccc(I)cc4)CC3)c2cc1OC [Compound 47, 4-(6,7-Dimethoxy-4-quinazolinyl)-N-(4-iodophenyl)-1-piperazinethiocarboxamide]	129 to 132
COc1cc2ncnc(N3CCN(C(=O)Nc4ccc(Cl)cc4C(F)(F)F)CC3)c2cc1OC [Compound 48, N-[4-Chloro-2-(trifluoromethyl)phenyl]-4-(6,7-dimethoxy-4-quinazolinyl)-1-piperazinecarboxamide]	189 to 190
COc1cc2ncnc(N3CCN(C(=O)Nc4ccc(Cl)c(C(F)(F)F)c4)CC3)c2cc1OC [Compound 49, N-[4-Chloro-3-(trifluoromethyl)phenyl]-4-(6,7-dimethoxy-4-quinazolinyl)-1-piperazinecarboxamide]	237 to 238
COc1cc2ncnc(N3CCN(C(=O)Nc4ccc(F)cc4F)CC3)c2cc1OC [Compound 50, N-(2,4-Difluorophenyl)-4-(6,7-dimethoxy-4-quinazolinyl)-1-piperazinecarboxamide]	174 to 175
COc1cc2ncnc(N3CCN(C(=O)Nc4cc(F)ccc4F)CC3)c2cc1OC [Compound 51, N-(2,5-Difluorophenyl)-4-(6,7-dimethoxy-4-quinazolinyl)-1-piperazinecarboxamide]	187 to 189
COc1cc2ncnc(N3CCN(C(=O)Nc4c(Cl)cccc4Cl)CC3)c2cc1OC [Compound 52, N-(2,6-Dichlorophenyl)-4-(6,7-dimethoxy-4-quinazolinyl)-1-piperazinecarboxamide]	202 to 207
COc1cc2ncnc(N3CCN(C(=O)Nc4ccc(Cl)cc4Cl)CC3)c2cc1OC [Compound 53, N-(2,4-Dichlorophenyl)-4-(6,7-dimethoxy-4-quinazolinyl)-1-piperazinecarboxamide]	166 to 167
COc1cc2ncnc(N3CCN(C(=O)Nc4cc(Cl)cc(Cl)c4)CC3)c2cc1OC [Compound 55, N-(3,5-Dichlorophenyl)-4-(6,7-dimethoxy-4-quinazolinyl)-1-piperazinecarboxamide]	139 to 140
COc1ccc(NC(=O)N2CCN(c3ncnc4cc(OC)c(OC)cc34)CC2)cc1 [Compound 56, 4-(6,7-Dimethoxy-4-quinazolinyl)-N-(4-methoxyphenyl)-1-piperazinecarboxamide]	221 to 223
CCOc1ccc(NC(=O)N2CCN(c3ncnc4cc(OC)c(OC)cc34)CC2)cc1 [Compound 57, 4-(6,7-Dimethoxy-4-quinazolinyl)-N-(4-ethoxyphenyl)-1-piperazinecarboxamide]	165 to 166
CCCCOc1ccc(NC(=O)N2CCN(c3ncnc4cc(OC)c(OC)cc34)CC2)cc1 [Compound 58, N-(4-Butoxyphenyl)-4-(6,7-dimethoxy-4-quinazolinyl)-1-piperazinecarboxamide]	213 to 214
COc1cc2ncnc(N3CCN(C(=O)Nc4ccc(OC(F)(F)F)cc4)CC3)c2cc1OC [Compound 59, 4-(6,7-Dimethoxy-4-quinazolinyl)-N-[4-(trifluoromethoxy)phenyl]-1-piperazinecarboxamide]	204 to 205
COc1cc2ncnc(N3CCN(C(=S)Nc4ccc(Oc5ccccc5)cc4)CC3)c2cc1OC [Compound 61, 4-(6,7-Dimethoxy-4-quinazolinyl)-N-(4-phenoxyphenyl)-1-piperazinethiocarboxamide]	242 to 243
COc1cc2ncnc(N3CCN(C(=S)Nc4ccc(Oc5ccc([N+](=O)[O-])cc5)cc4)CC3)c2cc1OC [Compound 62, 4-(6,7-Dimethoxy-4-quinazolinyl)-N-[4-(4-nitrophenoxy)phenyl]-1-piperazinethiocarboxamide]	204 to 207
COc1cc2ncnc(N3CCN(C(=S)Nc4ccc(OCc5ccccc5)cc4)CC3)c2cc1OC [Compound 63, N-(4-Benzyloxyphenyl)-4-(6,7-dimethoxy-4-quinazolinyl)-1-piperazinethiocarboxamide]	103 to 105
COc1ccc(NC(=O)N2CCN(c3ncnc4cc(OC)c(OC)cc34)CC2)c(OC)c1 [Compound 64, N-(2,4-Dimethoxyphenyl)-4-(6,7-dimethoxy-4-quinazolinyl)-1-piperazinecarboxamide]	187 to 188
COc1ccc(OC)c(NC(=O)N2CCN(c3ncnc4cc(OC)c(OC)cc34)CC2)c1 [Compound 65, N-(2,5-Dimethoxyphenyl)-4-(6,7-Dimethoxy-4-quinazolinyl)-1-piperazinecarboxamide]	215 to 217
COc1ccc(NC(=S)N2CCN(c3ncnc4cc(OC)c(OC)cc34)CC2)cc1OC [Compound 66, N-(3,4-Dimethoxyphenyl)-4-(6,7-dimethoxy-4-quinazolinyl)-1-piperazinethiocarboxamide]	174 to 176
COc1cc(NC(=S)N2CCN(c3ncnc4cc(OC)c(OC)cc34)CC2)cc(OC)c1 [Compound 67, N-(3,5-Dimethoxyphenyl)-4-(6,7-dimethoxy-4-quinazolinyl)-1-piperazinethiocarboxamide]	240 to 241
COc1cc2ncnc(N3CCN(C(=S)Nc4ccc5c(c4)OCO5)CC3)c2cc1OC [Compound 68, 4-(6,7-Dimethoxy-4-quinazolinyl)-N-(3,4-methylenedioxyphenyl)-1-piperazinethiocarboxamide]	207 to 211
COc1cc2ncnc(N3CCN(C(=O)Nc4ccc(SC)cc4)CC3)c2cc1OC [Compound 69, 4-(6,7-dimethoxy-4-quinazolinyl)-N-(4-methylthiophenyl)-1-piperazinecarboxamide]	231 to 233
COc1cc2ncnc(N3CCN(C(=S)Nc4ccc(Sc5ccc([N+](=O)[O-])cc5)cc4)CC3)c2cc1OC [Compound 70, 4-(6,7-Dimethoxy-4-quinazolinyl)-N-[4-(4-nitrophenylthio)phenyl]-1-piperazinethiocarboxamide]	144 to 146
CCN(CC)c1ccc(NC(=S)N2CCN(c3ncnc4cc(OC)c(OC)cc34)CC2)cc1 [Compound 72, N-(4-Diethylaminophenyl)-4-(6,7-dimethoxy-4-quinazolinyl)-1-piperazinethiocarboxamide]	147 to 148
COc1cc2ncnc(N3CCN(C(=S)Nc4ccc(N=Nc5ccc(N(C)C)cc5)cc4)CC3)c2cc1OC [Compound 74, 4-(6,7-Dimethoxy-4-quinazolinyl)-N-[4-(4-dimethylaminophenylazo)phenyl]-1-piperazinethiocarboxamide]	148 to 149
COc1cc2ncnc(N3CCN(C(=O)Nc4ccccc4[N+](=O)[O-])CC3)c2cc1OC [Compound 75, 4-(6,7-Dimethoxy-4-quinazolinyl)-N-(2-nitrophenyl)-1-piperazinecarboxamide]	217 to 218
COc1cc2ncnc(N3CCN(C(=O)Nc4cccc([N+](=O)[O-])c4)CC3)c2cc1OC [Compound 76, 4-(6,7-Dimethoxy-4-quinazolinyl)-N-(3-nitrophenyl)-1-piperazinecarboxamide]	123 to 125
